Data as given in patent US20240287123A1 (Victoria Link Limited, priority 2021, published 2024).
pEC50: −log10 of the molar value. “Also recorded” adds a separate entry of the source. Read-outs that look alike come from different tables or passages of the source.

Columns and labels:
[1] = system: HCMV (AD169 strain in HFF cells); experiment: CPE (cytopathic effect) assay for HCMV; format: cell-based, Human Cytomegalovirus
Protocol: (§1) Human foreskin fibroblast (HFF) cells prepared from human foreskin tissue were obtained from the University of Alabama at Birmingham tissue procurement facility with approval from its IRB. The tissue was incubated at 4° C. for 4 h in Clinical Medium consisting of minimum essential media (MEM) with Earl's salts supplemented with 10% fetal bovine serum (FBS) (Hyclone, Inc. Logan UT), L-glutamine, fungizone, and vancomycin. Tissue was then placed in phosphate buffered saline (PBS), minced, rinsed to remove the red blood cells, and resuspended in trypsin/EDTA solution. The tissue suspension was incubated at 37° C. and gently agitated to disperse the cells, which were collected by centrifugation. Cells were resuspended in 4 ml Clinical Medium and placed in a 25 cm^2 flask and incubated at 37° C. in a humidified CO2 incubator for 24 h. The media was then replaced with fresh Clinical Medium and the cell growth was monitored daily until a confluent monolayer had formed. The HFF cells were then expanded through serial passages in standard growth medium of MEM with Earl's salts supplemented with 10% FBS, L-glutamine, penicillin, and gentamycin.
Akata cells were obtained from Louisiana State University, Baton Rouge, LA. The HCMV strain AD169 was obtained from the American Type Culture Collection (ATCC, Manassas, VA). Akata cells latently infected with EBV were obtained from Louisiana State University, Baton Rouge, LA.
(§2) Each experiment that evaluates the antiviral activity of compounds includes both positive and negative control compounds to ensure the performance of each assay. Concurrent assessment of cytotoxicity was also performed for each study in the same cell line and with the same compound exposure.
Assays were performed in monolayers as described.37 Cells were seeded in 384 well plates and incubated for 24 h to allow the formation of confluent monolayers. Dilutions of test drug were prepared directly in the plates and the monolayers infected at a predetermined MOI based on virus used. After incubation, cytopathology was determined by the addition of CellTiter-Glo (CTG) reagent. […] Toxicity was measured using CTG as above.

[2] = Cytotoxicity in HFF cells (CellTiter-Glo), concurrent with HCMV assay; format: cell-based; conditions: human
Protocol: as §1, with “gentamycin. The cells were passaged routinely and used for assays at or below passage ^10.37,38” for “gentamycin.”
as §2
Assays were performed in monolayers as described.37 Cells were seeded in 384 well plates and incubated for 24 h to allow the formation of confluent monolayers. Dilutions of test drug were prepared directly in the plates and the monolayers infected at a predetermined MOI based on virus used. After incubation, cytopathology was determined by the addition of CellTiter-Glo (CTG) reagent. Concentrations of test compound sufficient to reduce CPE by 50% (EC50) or decrease cell viability by 50% (CC50) were interpolated using standard methods in Microsoft Excel. Toxicity was measured using CTG as above.

HIVADA = experiment: HIV p24 alphaLISA in infected monocyte derived macrophages; format: cell-based, Human Immunodeficiency Virus
Protocol: Primary human MDMs were cultured from peripheral blood mononuclear cells and pre-treated for 24 h with ddhC (100 μM), compound 8 (100 μM), compound 21 (100 μM), emtricitabine control (15 μM, 10 μM, 1 μM, 0.1 μM), or the drug vehicle, DMSO. MDM were then infected with HIVADA in the presence of these compounds and treated daily (with compound), while culture supernatants were collected to quantify levels of HIV p24, a viral capsid protein, on days 2-7 of infection.
Leukopaks from healthy donors were obtained from the New York Blood Center and processed by Ficoll gradient centrifugation to isolate peripheral blood mononuclear cells (PBMC). These PBMC were cultured adherently into monocyte derived macrophages (MDM), according to published protocols, on 60 mm dishes for 6 days with 10-20 ng/ml macrophage colony stimulating factor (M-CSF). MDM were pre-treated with ddhC, compound 8, compound 21, emtricitabine (Cat. No .: 10071), or DMSO vehicle at indicated concentrations for 24 hours (NIH AIDS Reagent Program, Bethesda, MD). Cells were left uninfected or infected for 24 h in the presence of one of the compounds listed above with 20 ng/mL HIVADA, a macrophage-tropic HIV strain originally derived from a person with HIV (NIH). Media was changed daily with the mentioned compounds added each time, and supernatants were collected on days 2, 3, 4, 5, 6, and 7 of infection. Each treatment condition was analyzed in duplicate plates per experiment.
Supernatant samples were analyzed for the viral capsid protein, HIV p24, by a sensitive p24 alphaLISA according to the manufacturer's protocol (Perkin-Elmer, Waltham, MA). Treatment conditions were analyzed in duplicate plates, and each supernatant was analyzed in duplicate on a 96-well alphaLISA plate. These were then fit to a sigmoid standard curve to extrapolate HIV p24 levels in pg/mL within the assay limits of detection.

[3] = Cytotoxicity in Akata cells (CTG), concurrent with EBV assay; format: cell-based; conditions: human, Akata cells (without virus induction), Table 1
Protocol: as §2
Assays for EBV were performed by reported methods.^37 Akata cells were induced to undergo a lytic infection with 50 μg/ml of a goat anti-human IgG antibody. Experimental compounds were diluted within plates. The cells were added and incubated for 72 h. Similar plates were initiated without virus induction/addition and used for measuring cytotoxicity by the addition of CTG. For all assays, the replication of the virus was assessed by the quantification of viral DNA. […] Compound concentrations sufficient to reduce genome copy number by 50% were calculated from experimental data as well as compound cytotoxicity.

Compound: CC(C)C(=O)OCC1=C[C@@H](O)[C@H](n2ccc(N)nc2=O)O1 [Compound 8, 3′-Deoxy-3′,4′-didehydro-5′-O-isobutyroyl-cytidine]
- pEC50 ([1]; Human betaherpesvirus 5, AD169, HFF, approximate, read-out: EC50 against HCMV): ~7.70
- pEC50 ([1]; Human betaherpesvirus 5, AD169 strain in HFF cells, Table 1, read-out: HCMV EC50): 7.70
- CC50 [2]: > 50000 nM
- reduction of p24 levels (HIVADA; 10 μM, by day 6 of infection): ~50%
- levels of HIV p24 viral capsid protein (HIVADA; 100 μM, infected MDM, days 2-7, compared with DMSO control): significantly reduce; also recorded: significantly decreased
- impact on HIV replication relative to the DMSO control (HIVADA; low doses: compound 8 compound 21 (0.1-1 μM) as printed): minimal impact
- CC50 at 72 h [3]: > 50000 nM
